Laboratory results as given in patent US20250290074A1, “TARGETED TREATMENT OF SPLICEOPATHY-INDUCED NEUROLOGICAL DISORDERS” (Auttx, LLC, priority 2022, published 2025).
Like-named read-outs stand apart in the source and are kept apart here. Strand notation (5' to 3'): a small letter for the sugar, then the base; units joined by * are phosphorothioate-linked, units joined directly phosphodiester-linked; [ ] holds rarer units or linkages, { } end groups; capitals alone tell only the bases. e = 2'-O-(2-methoxyethyl) (MOE); [5mC] = 5-methylcytosine

Columns and labels:
cancer = details: literature; cited from earlier work
[1] = cited from earlier work; for toxicity (LD50): IP or oral administration, U.S. Pat. No. 3,995,061, FIGS. 15A and 15B; for toxicity (shown to be non-toxic): in vivo
[2] = U.S. Pat. No. 3,995,061, cited from earlier work; for toxicity: administered orally to human
[3] = test system: glucose transporter 1 (GLUT-1); details: Jeong J. H. et al. 2011; cited from earlier work
[4] = mouse, in vivo, po; cited from earlier work
[5] = test system: vascular endothelial growth factor (VEGF); details: Jeong J. H. et al. 2011; cited from earlier work
[6] = rat, in vivo, po; cited from earlier work
HNRNPL = details: Gene HNRNPL; cited from earlier work
TDP-43 aggregation = details: iPS cell derived motor neurons, sporadic ALS; Burkhardt et al. 2013; cited from earlier work
[7] = test system: human hnRNP L (hsHNRNP L) mRNA; assay: 5-point dose response (DRC) of ASOs, hnRNP L mRNA by branched DNA assay in BE(2)-M17 cells; type: cell-based; details: 24 h; for max. upregulation [%] (MV normalized hsHNRNP L/hsGAPDH): Lipofectamine3000, highest 120 nM, four 4-fold dilutions, bDNA, negative controls set to 100%; for EC50: hsHNRNP L mRNA upregulation, XLfit
Excerpt: Data were generated in biological quadruplicates. […] No significant decrease in hsGAPDH mRNA levels was observed.
Details and data are shown in Table 9A-9B, FIG. 24, and FIG. 25A-25E. In some cases, there was dose dependent hsHNRNP L on-target mRNA upregulation to varying degrees when cells were transfected with ASO compounds of interest.

hsHNRNP L mRNA = assay: Time-course experiment, ASOs at 30 nM, hnRNP L mRNA by bDNA in BE(2)-M17 cells; type: cell-based, Homo sapiens; details: 30 nM ASO, mock controls set to 100%, incubations 24 h, 48 h, 72 h, time point not given
Method: Lipofectamine3000 (LF3000) was again used as the transfection agent. The transfection mixture was prepared identically on three plates. […] In this case, no outliers were removed. Data were generated in biological quadruplicates.
FIG. 26 includes a comparison of results from this study next to results from Example 7. Observing the results after 24 h incubation, similar data from the analysis in Example 7 were reproduced here.

hnRNP L [8] = assay: hnRNP L levels after ASC treatment in SH-SY5Y human neuroblastoma cells; type: cell-based; details: FIG. 14B
Method: (§1) FIG. 14 is a gel image showing a comparison of hnRNP L protein levels in rat primary cortical neurons with or without ASC treatments at different doses. The rat neurons were treated with 10^−7 M or 10^−6 M ASC, or not treated as control (“Cont.”), and then lysed for western blot detection of protein expression levels of hnRNP L (the upper panel). The arrow points to hnRNP L protein bands (appears as a triplet). […] FIG. 14B is a gel image showing elevation of hnRNP L levels after ASC treatment in SH-SY5Y human neuroblastoma cells (CLT results).

hnRNP L [9] = assay: Western blot of hnRNP L protein in rat primary cortical neurons after ASC treatment; type: cell-based; details: 10^−7 M or 10^−6 M ASC, FIG. 14
Method: as §1
(§2) Such function of ASC was also found in human osteosarcoma cells (about 10-fold) and multiple disease models, see PCT publication no. WO/2019/236750, which is incorporated by reference herein in its entirety.

hnRNP L [10] = details: cited from earlier work; for increase in the levels of hnRNP L: human osteosarcoma cells (U2OS)
hnRNP L [11] = assay: hnRNP L expression in human differentiated myoblasts after ASC treatment; type: cell-based
Excerpt: as §2

Molecule: CC(C=CC1(C)C(C)CCC(=O)C1C)=CCc1c(O)c(Br)c(C)c(C=O)c1O (centres unmarked) [3-bromoascochlorin, reference compound]
- antitumorigenic / anti-cancer properties (cancer): anti-cancer properties

Molecule: CCOc1c(Cl)c(C)c(C=O)c(O)c1C/C=C(C)/C=C/C1(C)C(C)CCC(=O)C1C (centres unmarked) [4-O-ethyl-ascochlorin]
- toxicity (LD50) [1]: low toxicity
- toxicity [2]: low toxicity

Molecule: COc1c(Cl)c(C)c(C=O)c(O)c1C/C=C(C)/C=C/[C@@]1(C)[C@H](C)CCC(=O)[C@@H]1C [MAC, 4-O-methylascochlorin]
- toxicity (LD50) [1]: low toxicity
- expression of GLUT-1 [3]: increases
- toxicity [4]: low toxicity
- expression of VEGF [5]: increases
- antitumorigenic / anti-cancer properties (cancer): antitumorigenic properties
- toxicity [6]: low toxicity
- tolerability in clinical trials [2]: well tolerated
- toxicity [2]: low toxicity

Molecule: C=C1CC[C@H](O)C(C)(C)[C@@H]1CC/C(C)=C/Cc1c(O)c(Cl)c(C)c(C=O)c1O [acremochlorin A, reference compound]
- antitumorigenic / anti-cancer properties (cancer): anti-cancer properties

Molecule: C/C(=C\Cc1c(O)c(Cl)c(C)c(C=O)c1O)CC/C=C(\C)[C@@H]1CC(=O)C(C)(C)O1 [ascofuranone]
- toxicity (shown to be non-toxic) [1]: non-toxic
- antitumorigenic / anti-cancer properties (cancer): antitumorigenic properties

Molecule: C[C@H](CS)C(=O)N1CCC[C@H]1C(=O)O [captopril]
- Source (DSigDB signature, association with increased hnRNP L levels) (HNRNPL): D3(UP)

Molecule: C[C@H]1O[C@@H](O[C@H]2[C@@H](O)C[C@H](O[C@H]3[C@@H](O)C[C@H](O[C@H]4CC[C@@]5(C)[C@H](CC[C@@H]6[C@@H]5C[C@@H](O)[C@]5(C)[C@@H](C7=CC(=O)OC7)CC[C@]65O)C4)O[C@@H]3C)O[C@@H]2C)C[C@H](O)[C@@H]1O [digoxin]
- hit in screen for compounds reducing TDP-43 aggregation (TDP-43 aggregation): hits confirmed in dose response assays
- Source (DSigDB signature, association with increased hnRNP L levels) (HNRNPL): D3(UP)

Molecule: CCc1c2c(nc3ccc(OC(=O)N4CCC(N5CCCCC5)CC4)cc13)-c1cc3c(c(=O)n1C2)COC(=O)[C@]3(O)CC [irinotecan]
- Source (DSigDB signature, association with increased hnRNP L levels) (HNRNPL): D3(UP)

Molecule: CN(C)C(=O)Oc1cccc([N+](C)(C)C)c1 [neostigmine bromide]
- Source (DSigDB signature, association with increased hnRNP L levels) (HNRNPL): D3(UP)

Molecule: C[C@@H]1O[C@@H](O[C@@H]2C=C3CC[C@@H]4[C@H](CC[C@]5(C)[C@@H](c6ccc(=O)oc6)CC[C@]45O)[C@@]3(C)CC2)[C@H](O)[C@H](O)[C@H]1O [proscillaridin]
- hit in screen for compounds reducing TDP-43 aggregation (TDP-43 aggregation): hits confirmed in dose response assays
- Source (DSigDB signature, association with increased hnRNP L levels) (HNRNPL): D3(UP)

Molecule: Skip-6A-18: ASO TACCATTGGACGCTTCAACAGT (SEQ ID NO: 67), fully 2′-MOE, 5′-methyl C, phosphorothioate; exon 6A (antisense eT*eA*e[5mC]*e[5mC]*eA*eT*eT*eG*eG*eA*e[5mC]*eG*e[5mC]*eT*eT*e[5mC]*eA*eA*e[5mC]*eA*eG*eT; listed as Homo sapiens)
- max. upregulation [%] (MV normalized hsHNRNP L/hsGAPDH) [7]: 47.3%
- EC50 [7]: 9.1 nM
- MV normalized hsHNRNP L/hsGAPDH (hsHNRNP L mRNA): 42.7%

Molecule: Skip-6A-19: ASO TTCTCTTACCATTGGACGCTTC (SEQ ID NO: 68), fully 2′-MOE, 5′-methyl C, phosphorothioate; exon 6A (antisense eT*eT*e[5mC]*eT*e[5mC]*eT*eT*eA*e[5mC]*e[5mC]*eA*eT*eT*eG*eG*eA*e[5mC]*eG*e[5mC]*eT*eT*e[5mC]; listed as Homo sapiens)
- max. upregulation [%] (MV normalized hsHNRNP L/hsGAPDH) [7]: 51.8%
- EC50 [7]: 7.36 nM
- MV normalized hsHNRNP L/hsGAPDH (hsHNRNP L mRNA): 62.4%

Molecule: Skip-6A-20: ASO CTGTATTTTCTCTTACCATTGG (SEQ ID NO: 69), fully 2′-MOE, 5′-methyl C, phosphorothioate; exon 6A (antisense e[5mC]*eT*eG*eT*eA*eT*eT*eT*eT*e[5mC]*eT*e[5mC]*eT*eT*eA*e[5mC]*e[5mC]*eA*eT*eT*eG*eG; listed as Homo sapiens)
- max. upregulation [%] (MV normalized hsHNRNP L/hsGAPDH) [7]: 71.6%
- EC50 [7]: 5.04 nM
- MV normalized hsHNRNP L/hsGAPDH (hsHNRNP L mRNA): 68.3%

Molecule: ascochlorin
- toxicity (shown to be non-toxic) [1]: non-toxic
- hnRNP L levels (hnRNP L [8]): elevation
- hnRNP L expression levels (hnRNP L [9]): increased
- antitumorigenic / anti-cancer properties (cancer): antitumorigenic properties
- increase of hnRNP L levels (hnRNP L [10]; Kang J. H. et al. J Proteome Res. 2006): ~12 ×
- increase in the levels of hnRNP L (hnRNP L [10]): ≥ 10 fold
- increase in the levels of hnRNP L (hnRNP L [10]; listed as ASC): about 10 fold
- increase of hnRNP L expression levels (hnRNP L [11]): about 6 fold
